Results taken from patent publication US9283163B2, “Collagen stimulators and their use in the treatment of skin” (Avon Products, Inc., priority 2012, dated 2016).

Tested on: Normal Human dermal fibroblasts
Test: Stimulation of collagen production: Procollagen Type-I C-Peptide EIA on conditioned media
Assay type: cell-based
Details: 0.0005% compound, 48 hours, p<0.05
Procedure: Cell Treatment: Normal Human dermal fibroblasts were grown in DMEM (Mediatech; cat. #: 15-013-CV) containing 10% Fetal Bovine Serum (Perbio; cat. #: SH30070.03), Penicillin/Streptomycin (Mediatech, Cat #30-001-C1), L-Glutamine (Mediatech; cat. #: 25-005-CI) at 37° C. and 10% CO2. Cells were stripped of serum overnight, followed by treatment with the compound of Formula I(b) (0.0005%) or vehicle (DMSO), in the absence of serum for 48 hours.
Reading was measured at 450 nm using a spectrophotometer.
Human dermal fibroblasts treated with 0.0005% the compound of Formula I(b) for 48 hours were analyzed by ELISA for expression levels of pro-collagen. […] All values are statistically significant at p<0.05.

In the case of `COc1ccc(Cc2nc(=O)c(CCC(=O)N3CCC(C)CC3)n[nH]2)cc1OC` [Formula I(b)], the “pro-collagen, relative to control, vehicle treated cells” value (ELISA, result in words) is reported as “significant increase” and the Procollagen (serum-free, procollagen in conditioned media by ELISA, vehicle (DMSO) control = 100%) is reported as 146%.
